{"source": "patent US10363282B2", "about": "“Analogs of C5a and methods of using same” (priority 2010, dated 2019)", "key": {"E. coli strain DH5α": {"test_system": "E. coli strain DH5α", "assay": "E. coli growth (OD600) with peptide", "type": "cell-based", "settings": "for effect on log phase growth (OD600): added at OD600 0.2, 500 μg/m, LB or TSB", "procedure": "E. coli strain DH5α was grown overnight in mls of Lennox Broth (LB). This culture was diluted to an optical density at […] (OD600) of 0.06. The diluted E.coli was dispensed in 1.5 ml aliquots into separate tubes and 1.5 ml of EP67 (YSFKDMP(MeL)aR (SEQ ID NO: 4)), EP54 (YSFKPMPLaR (SEQ ID NO: 3)), scrambled-EP67 (s-EP67) or scrambled-EP54 in LB was added to obtain a final concentration of 500 μg/ml with the E. coli at an OD600 of 0.03. A culture in LB was also prepared. The cultures were incubated at 37° C. with shaking and the OD600 readings recorded hourly. In order to determine whether the growth media altered the effectiveness of EP67, LB was replaced with an alternative growth media, Tryptic Soy Broth (TSB).\nTo test the efficacy of EP67 on bacteria growing in log phase, overnight cultures of DH5α were grown in either LB or TSB. The cultures were diluted to an OD600 of 0.03 and incubated at 37° C. with shaking until they reached an OD600 of 0.2 at which time either EP67 or s-EP67, in the appropriate media, were added to a final concentration of 500 μg/m. DH5α control cultures (absence of additives) were also prepared. The tubes were further shaken at 37° C. and OD600 readings were taken hourly."}, "MRSA": {"test_system": "MRSA", "type": "in vivo, C57B1/6 mice", "settings": "for lesion size in CD88 −/− background vs EP67-treated CD88 +/+ background: mouse, in vivo"}, "neutrophils": {"test_system": "neutrophils", "assay": "In vivo neutrophil chemotaxis: histopathology and myeloperoxidase assay", "design": "species or system CD1 mice", "settings": "for histopathologic analysis of skin tissue: 250 μg s.c., no bacteria", "procedure": "Neutrophil chemotaxis and myeloperoxidase assay. Neutrophil recruitment at the site of injection by EP67 or sEP67 was examined using an in vivo chemotaxis assay as described previously (van Sorge N M, et al., PloS One 2008; 3:e2964). Briefly, 250 μg EP67 or sEP67 were injected subcutaneously into the right flank of CD1 mice. The injection was repeated after 24 h. Mice were euthanized 4 h after the second injection and the site of injection excised for histopathoglogic analysis or determination of myeloperoxidase (MPO) activity as described previously (van Sorge N M, et al., supra). The assay was carried out two times and the samples analyzed in duplicate.\nNeutrophil influx is essential for the protective action of EP67. […] Neutrophil recruitment to the site of EP67 injection was further analyzed using an in vivo neutrophil recruitment assay as described previously (van Sorge N M, et al., supra; and Banerjee A, et al., Cell Microbiol; 12:1576-1588). Neutrophil migration was assessed in skin homogenates following injection of EP67 or sEP67 by determining the level of neutrophil enzyme myeloperoxidase (MPO), which serves as an effective indication of neutrophil infiltration (Banerjee A, et al., supra; and Bradley P P, et al., J Invest Dermatol 1982; 78:206-209). This method compares well with other in vivo assays of neutrophil chemotaxis (van Sorge N M, et al., supra)."}, "influenza A/PR/8": {"test_system": "influenza A/PR/8", "type": "in vivo, mice", "settings": "uninfected animals treated with EP67, one day later"}, "[1]": {"test_system": "S. aureus (Newman strain)", "assay": "S. aureus in vitro EP67 killing curves", "type": "cell-based", "settings": "dilution series, LB; higher concentrations", "procedure": "150 μl of LB growth medium plus 50 μl of EP67 or s-EP67 were added to individual culture wells resulting in a dilution series of 6 wells per EP67 or s-EP67. A “no EP67” well (control) was included at the end of each series. S. aureus (Newman strain) was allowed to grow to an OD600 of 0.4 and each well of the dilution series was inoculated with 5μl of the culture. Two wells with no bacterial inoculums were included to serve as controls. Plates were incubated at 37° C. with agitation and the OD600 of each well was measured hourly using a plate reader."}, "influenza A/A/PR/8": {"test_system": "influenza A/A/PR/8", "assay": "Influenza-induced weight loss after one EP67 treatment", "type": "in vivo, mice"}, "[2]": {"test_system": "S. aureus (USA300 LAC strain) biofilm", "assay": "S. aureus catheter biofilm model", "settings": "Day 3, relative to sEP67 and PBS vehicle", "description": "A S. aureus (USA300 LAC strain) biofilm was established on a hollow catheter (1 cm in length) inserted subcutaneously into C57BL/6 mice by introducing 1000 CFUs of S. aureus into the catheter lumen. At the time of infection, one dose of EP67 (200 μg/ml dissolved in PBS) was introduced. At both 24 and 48 h following infection, a series of four injections of EP67 were made; two into each open end of the catheter (20 μl each) and two along the top and bottom at points perpendicular to the middle of the catheter (50 μl each). Samples of the biofilm and surrounding tissue were obtained at Day 3 and assessed for the presence of viable bacteria by standard culture methods."}, "GBS": {"test_system": "GBS", "assay": "Group B Streptococcus (GBS) meningitis model", "type": "in vivo, CD1 mice", "settings": "250 ug i.p. at day −1, 0, 1 and 2; brain and blood cfu 96 hours post-injection", "procedure": "8-week old female CD1 mice were treated with 250 ug of EP67 or s-EP67 at day −1, 0, 1 and 2 via i.p. injection. GBS was injected via i.p. at 1×10^9 cfu/mouse. Brains and blood were harvested from each mouse 96 hours post-injection. The tissue was homogenized, diluted and plated to determine the cfu/g bacteria."}, "influenza": {"test_system": "influenza", "assay": "ELISA for anti-influenza antibodies in serum", "type": "in vivo, mice", "settings": "each EP67 treatment group"}, "[3]": {"test_system": "bronchoalveolar lavage (BAL) cells", "assay": "BAL cell response of aged mice to EP67 insufflation", "type": "in vivo"}, "[4]": {"test_system": "bronchoalveolar lavage (BAL) cells", "assay": "BAL cell FACS analysis after EP67 insufflation", "type": "in vivo, mice", "procedure": "In short, EP67 (3 mg/kg) was delivered directly to the lungs of mice through insufflation (IN). […] Lungs were lavaged with PBS to isolate the bronchoalveolar lavage (BAL) cells for staining and FACS analysis."}, "[5]": {"settings": "EP67 3 mg/kg insufflation, one day later"}}, "note": "Like-named read-outs stand apart in the source and are kept apart here. Where no end group is shown, it is not given here. [ ]: non-standard residue; d: D form. NMeL = CN[C@@H](CC(C)C)C(=O)O"}
{"substance": "(MeL)RMYKPaFDS ([NMeL]RMYKP[dA]FDS) [sEP67, reference compound]", "values": [{"measurement": "effect on log phase growth (OD600)", "setting": "E. coli strain DH5α", "value": "little or no effect on growth"}, {"measurement": "lesion size in CD88 −/− background vs EP67-treated CD88 +/+ background", "setting": "MRSA", "value": "significantly larger"}, {"measurement": "histopathologic analysis of skin tissue", "setting": "neutrophils", "value": "normal pathology"}]}
{"substance": "YSFKDMP(MeL)aR (YSFKDMP[NMeL][dA]R; listed as Homo sapiens) [EP67, C-terminal analog of human C5a]", "values": [{"measurement": "influx of innate effectors (exMacs, neutrophils) in BAL", "setting": "influenza A/PR/8", "value": "displayed this influx of innate effectors"}, {"measurement": "effect on bacterial growth (OD600)", "setting": "E. coli strain DH5α; 500 μg/ml, start OD600 0.03, LB or TSB", "value": "direct bacteriostatic/bacteriocidal effects"}, {"measurement": "effect on log phase growth (OD600)", "setting": "E. coli strain DH5α", "value": "significantly reduce and/or stop log phase growth"}, {"measurement": "lesion size", "setting": "MRSA; CD88 −/− animals, EP67 vs sEP67", "value": "no difference in lesion size"}, {"measurement": "lesion size in CD88 −/− background vs EP67-treated CD88 +/+ background", "setting": "MRSA", "value": "significantly larger"}, {"measurement": "lesion size", "setting": "MRSA; wild-type CD88 +/+ animals, EP67 compared to sEP67", "value": "significantly smaller lesions"}, {"measurement": "effect on bacterial growth (OD600)", "setting": "[1]", "value": "dose dependent inhibitory effect"}, {"measurement": "protection from influenza-induced morbidity", "setting": "influenza A/A/PR/8; treated on day 2 after infection", "value": "not associated with any protection"}, {"measurement": "protection from influenza-induced morbidity", "setting": "influenza A/A/PR/8; treated on day 3 after infection", "value": "not associated with any protection"}, {"measurement": "influenza-induced weight loss", "setting": "influenza A/A/PR/8; treated one day after infection", "value": "significant protection from influenza-induced weight loss"}, {"measurement": "influenza-induced weight loss", "setting": "influenza A/A/PR/8; treated the day before infection, vs non-treated animals", "value": "lost significantly less weight"}, {"measurement": "influenza-induced weight loss", "setting": "influenza A/A/PR/8; treated the day of infection, vs non-treated animals", "value": "lost significantly less weight"}, {"measurement": "myeloperoxidase (MPO) levels in skin homogenates (accumulating neutrophils)", "setting": "neutrophils; 250 μg s.c. twice, 4 h after second injection, compared to sEP67", "value": "significantly higher"}, {"measurement": "histopathologic analysis of skin tissue", "setting": "neutrophils", "value": "massive influx of inflammatory cells, including neutrophils"}, {"measurement": "bacterial burdens in surrounding tissue", "setting": "[2]", "value": "significant decrease in bacterial burdens"}, {"measurement": "bacterial burdens within the biofilm", "setting": "[2]", "value": "significant decrease in bacterial burdens"}, {"measurement": "protection against GBS infection in the central nervous system", "setting": "GBS", "value": "protects against GBS infections in the central nervous system"}, {"measurement": "anti-influenza Abs in serum", "setting": "influenza", "value": "high concentration of anti-influenza Abs"}, {"measurement": "exMacs and neutrophils in alveolar space", "setting": "[3]", "value": "a large population of exMAcs and neutrophils into the alveolar space"}, {"measurement": "CD11b+CD11c− cells (GR-1+ neutrophils) in alveolar space", "setting": "[4]; [5]", "value": "a large population of CD11b^+CD11c^− cells appeared in the alveolar space"}, {"measurement": "exudate macrophages (exMac) in BAL cells", "setting": "[4]; [5]", "value": "appearance of cells bearing the CD11b^+CD11c^+ phenotype of exudate macrophages (exMac)"}, {"measurement": "dose dependence of EP67-induced changes in BAL populations", "setting": "[4]; mouse, in vivo", "value": "strict dose-response"}, {"measurement": "time course of the EP67 response in BAL cells: neutrophils", "setting": "[4]; seven days post EP67 administration", "value": "the neutrophils were largely lost"}]}
